Consider five compounds from patent US5292757A, “1,4-dihydropyridine compounds useful as reverse resistance agents” (Ajinomoto Company, Inc., priority 1991, dated 1994).

Each structure is given as a SMILES string. Values after ≈ are worked out from the molar mass of the structure shown. Structures can show the parent of a compound that is named as a salt.

In one test the test system is colon 26 cells. In words: Regression of tumor in colon 26 bearing mice in combination with adriamycin. The following applies: for reducing tumor weight: in combination with adriamycin. Type of test: in vivo, mouse (CDF1). How it is done:
20 mg of colon 26 cells were transplanted subcutaneously to CDF1 mice (6 weeks old, female) on day 0. On day 6 the diameter of the tumor was measured and groups of 5 mice were selected having equal average tumor size. On day 7 and 14, 10 mg/kg of adriamycin was injected i.v. and the tested compounds were administered p.o. at 0, 8, 24, 32 hours after the injection of adriamycin. Adriamycin was dissolved in saline to a concentration of 2 mg/ml and the compounds in Example 61 and 62 were dissolved in saline to a concentration of 50 mg/ml. The diameter of the tumor was measured each week and tumor weight was estimated as follows: [formula] (L:long diameter, S:short diameter, mm)

The test system of test [1] is Vincristine-resistant mouse P388 leukemia cells. In words: Test of effect on overcoming anti-cancer drug resistance (growth inhibition by vincristine, MTT method). Type of test: cell-based. The procedure:
Vincristine-resistant mouse P388 leukemia cells were used as an example of resistant cancer cells. RPMI-1640 medium containing 5 μM of 2-mercaptoethanol and 10% fetal calf serum was used for incubation.
The cells were inoculated on a 96-well microplate in 1×10^4 /50 μl/well and 25 μl each of vincristine solution having a specific concentration and an aqeous solution of the test compound (4 μg/ml) was added thereto. After culturing at 37° C. for 2 days, the viable cells were counted by the MTT method and a dose-response curve of vincristine was prepared. Based on the curve, the concentration (IC50) of vincristine producing a 50% inhibition of growth was determined.
(Tetrazolium dyes change colour on reduction, which living cells bring about.)

[2] abbreviates: compound dose 250 mg p.o. with adriamycin 10 mg/kg i.v., hydrochloride.
The mark [3] stands for this setting: compound dose 500 mg p.o. with adriamycin 10 mg/kg i.v., hydrochloride.

As a reminder, the IC50 is the concentration that gives 50% inhibition.

Regarding `COC(=O)C1=C(C)N(CCCc2ccccc2)C(C)=C(C(=O)OCCCc2cccnc2)C1c1ccc(OC)c(OC)c1` (single isomer, unassigned; (+)) [Example 61, (+)-1,4-dihydro-4-(3,4-dimethoxyphenyl)-2,6-dimethyl-1-(3-phenylpropyl)-3,5-pyridinedicarboxylic acid 3-methyl-5-[3-(3-pyridyl)propyl] ester hydrochloride], the tumor weight was determined as 2.2 g in the test with colon 26 cells (setting [2]) and 2 g with colon 26 cells (setting [3]). Further, the reducing tumor weight result in the test on colon 26 cells is given as “effective in reducing tumor weight in combination with adriamycin”.
With `COC(=O)C1=C(C)N(CCCc2ccccc2)C(C)=C(C(=O)OCCCc2cccnc2)C1c1ccc(OC)c(OC)c1` (single isomer, unassigned; (-)) [Example 62, (-)-1,4-dihydro-4-(3,4-dimethoxyphenyl)-2,6-dimethyl-1-(3-phenylpropyl-3,5-pyridinedicarboxylic acid 3-methyl-5-[3-(3-pyridyl)propyl]ester hydrochloride], the tumor weight in the test with colon 26 cells (setting [2]) is reported as 1.8 g; in the test with colon 26 cells (setting [3]) it was 1.1 g. In addition, the reducing tumor weight result in the test with colon 26 cells is “effective in reducing tumor weight in combination with adriamycin”.
`COc1cccc2c1C(=O)c1c(O)c3c(c(O)c1C2=O)C[C@@](O)(C(=O)CO)C[C@@H]3O[C@H]1C[C@H](N)[C@H](O)[C@H](C)O1` [Adriamycin, reference compound]: the tumor weight in the test on colon 26 cells (adriamycin 10 mg/kg i.v. alone, no test compound (untreated 4.5 g)) was 2.7 g.
Take `COC(=O)C1=C(C)N(CCCc2ccccc2)C(C)=C(C(=O)OCCCN2CCN(CC(C)C)CC2)C1c1ccc(OC)c(OC)c1` (stereo not drawn) [Example 3, 1,4-dihydro-4-(3,4-dimethoxyphenyl)-2,6-dimethyl-1-(3-phenylpropyl)-3,5-pyridinedicarboxylic acid 3-methyl-5-[3-(4-isobutylpiperazino)propyl]ester]: the “IC50 (concentration of vincristine producing a 50% inhibition of growth in the presence of the compound)” value in test [1] (vincristine IC50, test compound present at 1 μg/ml, 37° C., 2 days, MTT) worked out at 0.0015 µg/mL.
As for `CC[C@]1(O)C[C@H]2CN(CCc3c([nH]c4ccccc34)[C@@](C(=O)OC)(c3cc4c(cc3OC)N(C=O)[C@H]3[C@@](O)(C(=O)OC)[C@H](OC(C)=O)[C@]5(CC)C=CCN6CC[C@]43[C@@H]65)C2)C1` [vincristine, reference compound], in test [1] (Mus musculus, P388, 48 h, read-out: IC50 of vincristine alone), the IC50 lay in the range of 0.05 to 0.1 µg/mL (≈ 0.0606 to 0.121 µM).
